Source: ChEMBL document CHEMBL3885861, “Open TG-GATES”

Species on record: Rattus norvegicus
Assay: Open TG-GATES - Regimen: Single
Assay type: toxicity, organism-based, Sprague-Dawley
Design: regimen Single, gender Male, age 6 weeks
Settings: in vivo, po, route gavage; for APTT / Bas / Eos / Fbg / Hb / Ht / Lym / MCH / MCHC / MCV / Mono / Neu / PT / Plat / RBC / Ret / WBC: tissue Blood; for KIDNEY_L / KIDNEY_R / KIDNEY_TOTAL: tissue Kidney; for LIVER: tissue Liver; for A/G / ALP / ALT / AST / BUN / CRE / Ca / Cl / DBIL / GLC / IP / K / LDH / Na / PL / RALB / TBIL / TC / TG / TP / gamma-GTP: tissue Plasma
[1] = 100 mg/kg, 3 h, dose level Middle
[2] = 100 mg/kg, 6 h, dose level Middle
[3] = 100 mg/kg, 9 h, dose level Middle
[4] = 100 mg/kg, 24 h, dose level Middle
[5] = 300 mg/kg, 3 h, dose level High
[6] = 300 mg/kg, 6 h, dose level High
[7] = 300 mg/kg, 9 h, dose level High
[8] = 300 mg/kg, 24 h, dose level High

## Cc1cccc(Nc2ccccc2C(=O)O)c1C [MEFENAMIC ACID]
[1]
  TERMINAL_BW: 218.5 g
  APTT: 19.2 s
  Bas: 0%
  Eos: 0.8%
  Fbg: 218.2 mg/dL
  Hb: 13.3 g/dL
  Ht: 37.3%
  Lym: 80%
  MCH: 21.8 pg
  MCHC: 35.5%
  MCV: 61.4 fL
  Mono: 2.2%
  Neu: 15%
  PT: 12.2 s
  Plat: 114.3 x10_4/uL
  RBC: 608.6 x10_4/ul
  Ret: 7.4%
  WBC: 104.3 x10_2/uL
  KIDNEY_L: 1 g
  KIDNEY_R: 1 g
  KIDNEY_TOTAL: 1.9 g
  LIVER: 9.9 g
  A/G: 1.6
  ALP: 1058 IU/L
  ALT: 37.6 IU/L
  AST: 67.8 IU/L
  BUN: 12.4 mg/dL
  CRE: 0.4 mg/dL
  Ca: 10.7 mg/dL
  Cl: 103.4 meq/L
  DBIL: 0.074 mg/dL
  GLC: 196.8 mg/dL
  IP: 8.6 mg/dL
  K: 4.1 meq/L
  LDH: 184 IU/L
  Na: 140.8 meq/L
  PL: 141.4 mg/dL
  RALB: 3.4 g/dL
  TBIL: 0.1 mg/dL
  TC: 78.6 mg/dL
  TG: 43.4 mg/dL
  TP: 5.5 g/dL
  gamma-GTP: 1.6 IU/L
[2]
  TERMINAL_BW: 215.4 g
  APTT: 18.2 s
  Bas: 0%
  Eos: 1%
  Fbg: 225.6 mg/dL
  Hb: 13 g/dL
  Ht: 37.2%
  Lym: 76.2%
  MCH: 21.7 pg
  MCHC: 35.1%
  MCV: 61.8 fL
  Mono: 2.6%
  Neu: 18.6%
  PT: 12.6 s
  Plat: 108.7 x10_4/uL
  RBC: 602.4 x10_4/ul
  Ret: 7.6%
  WBC: 76.8 x10_2/uL
  KIDNEY_L: 1 g
  KIDNEY_R: 1 g
  KIDNEY_TOTAL: 2 g
  LIVER: 9.6 g
  A/G: 1.6
  ALP: 782.4 IU/L
  ALT: 36.8 IU/L
  AST: 64.2 IU/L
  BUN: 11 mg/dL
  CRE: 0.3 mg/dL
  Ca: 10.5 mg/dL
  Cl: 103 meq/L
  DBIL: 0.064 mg/dL
  GLC: 185.4 mg/dL
  IP: 9 mg/dL
  K: 4.1 meq/L
  LDH: 160.4 IU/L
  Na: 139.8 meq/L
  PL: 139.6 mg/dL
  RALB: 3.3 g/dL
  TBIL: 0.1 mg/dL
  TC: 77.6 mg/dL
  TG: 48.4 mg/dL
  TP: 5.4 g/dL
  gamma-GTP: 1.4 IU/L
[3]
  TERMINAL_BW: 211.6 g
  APTT: 17.9 s
  Bas: 0%
  Eos: 1%
  Fbg: 216.4 mg/dL
  Hb: 13.6 g/dL
  Ht: 38.1%
  Lym: 77.2%
  MCH: 22.3 pg
  MCHC: 35.8%
  MCV: 62.4 fL
  Mono: 2.2%
  Neu: 18.2%
  PT: 12.7 s
  Plat: 112.5 x10_4/uL
  RBC: 611 x10_4/ul
  Ret: 7.2%
  WBC: 77.1 x10_2/uL
  KIDNEY_L: 0.9 g
  KIDNEY_R: 0.9 g
  KIDNEY_TOTAL: 1.8 g
  LIVER: 8.6 g
  A/G: 1.6
  ALP: 955.2 IU/L
  ALT: 30.8 IU/L
  AST: 61.6 IU/L
  BUN: 12.2 mg/dL
  CRE: 0.4 mg/dL
  Ca: 10.4 mg/dL
  Cl: 103 meq/L
  DBIL: 0.06 mg/dL
  GLC: 196.2 mg/dL
  IP: 9.4 mg/dL
  K: 3.7 meq/L
  LDH: 184.6 IU/L
  Na: 140.2 meq/L
  PL: 127.8 mg/dL
  RALB: 3.4 g/dL
  TBIL: 0.1 mg/dL
  TC: 72.4 mg/dL
  TG: 29.6 mg/dL
  TP: 5.5 g/dL
  gamma-GTP: 1 IU/L
[4]
  TERMINAL_BW: 227 g
  APTT: 17.3 s
  Bas: 0%
  Eos: 1%
  Fbg: 209.2 mg/dL
  Hb: 13 g/dL
  Ht: 37.3%
  Lym: 72.6%
  MCH: 22.1 pg
  MCHC: 35%
  MCV: 63.2 fL
  Mono: 2.8%
  Neu: 21.2%
  PT: 12.1 s
  Plat: 119.7 x10_4/uL
  RBC: 590.4 x10_4/ul
  Ret: 7%
  WBC: 99.5 x10_2/uL
  KIDNEY_L: 1 g
  KIDNEY_R: 1.1 g
  KIDNEY_TOTAL: 2.1 g
  LIVER: 11 g
  A/G: 1.6
  ALP: 883 IU/L
  ALT: 39.2 IU/L
  AST: 67.2 IU/L
  BUN: 14.2 mg/dL
  CRE: 0.4 mg/dL
  Ca: 10.9 mg/dL
  Cl: 102.8 meq/L
  DBIL: 0.092 mg/dL
  GLC: 190.6 mg/dL
  IP: 7.5 mg/dL
  K: 4.3 meq/L
  LDH: 196.4 IU/L
  Na: 139.8 meq/L
  PL: 151.8 mg/dL
  RALB: 3.5 g/dL
  TBIL: 0.1 mg/dL
  TC: 81 mg/dL
  TG: 88.8 mg/dL
  TP: 5.6 g/dL
  gamma-GTP: 1.4 IU/L
[5]
  TERMINAL_BW: 215.2 g
  APTT: 18.8 s
  Bas: 0%
  Eos: 1.2%
  Fbg: 229.4 mg/dL
  Hb: 12.9 g/dL
  Ht: 36.2%
  Lym: 73.6%
  MCH: 21.8 pg
  MCHC: 35.6%
  MCV: 61.3 fL
  Mono: 2.8%
  Neu: 20.2%
  PT: 12.4 s
  Plat: 115.5 x10_4/uL
  RBC: 591.2 x10_4/ul
  Ret: 7.5%
  WBC: 95.9 x10_2/uL
  KIDNEY_L: 1 g
  KIDNEY_R: 1 g
  KIDNEY_TOTAL: 2 g
  LIVER: 9.5 g
  A/G: 1.5
  ALP: 832.8 IU/L
  ALT: 35.8 IU/L
  AST: 66.4 IU/L
  BUN: 11.6 mg/dL
  CRE: 0.4 mg/dL
  Ca: 10.7 mg/dL
  Cl: 102.6 meq/L
  DBIL: 0.072 mg/dL
  GLC: 181.2 mg/dL
  IP: 8.6 mg/dL
  K: 4.3 meq/L
  LDH: 184 IU/L
  Na: 139.6 meq/L
  PL: 134.2 mg/dL
  RALB: 3.2 g/dL
  TBIL: 0.1 mg/dL
  TC: 73.2 mg/dL
  TG: 38.4 mg/dL
  TP: 5.4 g/dL
  gamma-GTP: 1.4 IU/L
[6]
  TERMINAL_BW: 215.5 g
  APTT: 18.9 s
  Bas: 0%
  Eos: 1%
  Fbg: 220 mg/dL
  Hb: 13.2 g/dL
  Ht: 36.8%
  Lym: 73.2%
  MCH: 21.5 pg
  MCHC: 35.8%
  MCV: 60.2 fL
  Mono: 3%
  Neu: 19.6%
  PT: 12.7 s
  Plat: 114.8 x10_4/uL
  RBC: 612.4 x10_4/ul
  Ret: 7.5%
  WBC: 106.7 x10_2/uL
  KIDNEY_L: 1 g
  KIDNEY_R: 1 g
  KIDNEY_TOTAL: 2 g
  LIVER: 8.8 g
  A/G: 1.6
  ALP: 1032.8 IU/L
  ALT: 31.2 IU/L
  AST: 60.8 IU/L
  BUN: 13 mg/dL
  CRE: 0.3 mg/dL
  Ca: 10.4 mg/dL
  Cl: 104.2 meq/L
  DBIL: 0.06 mg/dL
  GLC: 194.6 mg/dL
  IP: 9.1 mg/dL
  K: 4.1 meq/L
  LDH: 175 IU/L
  Na: 140.2 meq/L
  PL: 133.4 mg/dL
  RALB: 3.3 g/dL
  TBIL: 0.1 mg/dL
  TC: 75.4 mg/dL
  TG: 39 mg/dL
  TP: 5.4 g/dL
  gamma-GTP: 1 IU/L
[7]
  TERMINAL_BW: 211.4 g
  APTT: 17.9 s
  Bas: 0%
  Eos: 1%
  Fbg: 221 mg/dL
  Hb: 13.1 g/dL
  Ht: 36.7%
  Lym: 70.4%
  MCH: 21.7 pg
  MCHC: 35.7%
  MCV: 60.7 fL
  Mono: 2.6%
  Neu: 22.8%
  PT: 13.1 s
  Plat: 112.4 x10_4/uL
  RBC: 604.8 x10_4/ul
  Ret: 7.5%
  WBC: 77.5 x10_2/uL
  KIDNEY_L: 1 g
  KIDNEY_R: 1 g
  KIDNEY_TOTAL: 2 g
  LIVER: 8.1 g
  A/G: 1.6
  ALP: 800.8 IU/L
  ALT: 29.8 IU/L
  AST: 58.8 IU/L
  BUN: 14.2 mg/dL
  CRE: 0.4 mg/dL
  Ca: 10.5 mg/dL
  Cl: 104.8 meq/L
  DBIL: 0.068 mg/dL
  GLC: 187.4 mg/dL
  IP: 9.4 mg/dL
  K: 4.2 meq/L
  LDH: 173.6 IU/L
  Na: 140.8 meq/L
  PL: 119 mg/dL
  RALB: 3.4 g/dL
  TBIL: 0.1 mg/dL
  TC: 65 mg/dL
  TG: 35.6 mg/dL
  TP: 5.5 g/dL
  gamma-GTP: 1 IU/L
[8]
  TERMINAL_BW: 225 g
  APTT: 18.3 s
  Bas: 0%
  Eos: 0.8%
  Fbg: 289.8 mg/dL
  Hb: 12.9 g/dL
  Ht: 36.8%
  Lym: 60.4%
  MCH: 22 pg
  MCHC: 35.1%
  MCV: 62.8 fL
  Mono: 3%
  Neu: 31.4%
  PT: 11.8 s
  Plat: 115.4 x10_4/uL
  RBC: 585.4 x10_4/ul
  Ret: 7%
  WBC: 131.5 x10_2/uL
  KIDNEY_L: 1 g
  KIDNEY_R: 1 g
  KIDNEY_TOTAL: 2.1 g
  LIVER: 10.5 g
  A/G: 1.5
  ALP: 850.8 IU/L
  ALT: 36 IU/L
  AST: 61.4 IU/L
  BUN: 14.2 mg/dL
  CRE: 0.4 mg/dL
  Ca: 10.4 mg/dL
  Cl: 103.6 meq/L
  DBIL: 0.08 mg/dL
  GLC: 185.2 mg/dL
  IP: 7.8 mg/dL
  K: 3.8 meq/L
  LDH: 187.2 IU/L
  Na: 141.4 meq/L
  PL: 133.4 mg/dL
  RALB: 3 g/dL
  TBIL: 0.1 mg/dL
  TC: 67 mg/dL
  TG: 100.2 mg/dL
  TP: 5 g/dL
  gamma-GTP: 2 IU/L
